For data set [1], the system named is Mast/stem cell growth factor receptor Kit (Homo sapiens), P10721 [D816H]. In words: Inhibition of human partial length KIT D816H mutant (I571 to D952 residues) expressed in mammalian expression system at 1 uM by Kinomescan method relative to control.
The target of data set [2] is Ephrin type-B receptor 6 (Homo sapiens) (UniProt O15197). As to the kind of experiment: Inhibition of wild-type human partial length EPHB6 (Q634 to P948 residues) expressed in mammalian expression system at 1 uM by Kinomescan method relative to control.
The target of data set [3] is Serine/threonine-protein kinase N1 (Homo sapiens) (UniProt Q16512). In words: Inhibition of wild-type human partial length PKN1 (E598 to C948 residues) expressed in bacterial expression system at 1 uM by Kinomescan method relative to control.
Data set [4] has as its target Casein kinase II subunit alpha' (Homo sapiens) (UniProt P19784). As to the kind of experiment: Inhibition of wild-type human full length CSNK2A2 (M1 to R350 residues) expressed in mammalian expression system at 1 uM by Kinomescan method relative to control.
Data set [5] deals with Phosphatidylinositol 4-kinase beta (Homo sapiens) (UniProt Q9UBF8). In words: Inhibition of wild-type human full length PIK4CB (M1 to M828 residues) expressed in mammalian expression system at 1 uM by Kinomescan method relative to control.
For data set [6], the target named is Cyclin-dependent kinase 11A (Homo sapiens) (UniProt Q9UQ88). In words: Inhibition of wild-type human partial length CDC2L2 (D391 to K730 residues) expressed in bacterial expression system at 1 uM by Kinomescan method relative to control.
The target of data set [7] is Tyrosine-protein kinase JAK1 (Homo sapiens) (UniProt P23458). As to the kind of experiment: Inhibition of wild-type human partial length JAK1 JH2 pseudokinase domain (R537 to D855 residues) expressed in mammalian expression system at 1 uM by Kinomescan method relative to control.
The test system of data set [8] is Mast/stem cell growth factor receptor Kit (Homo sapiens), P10721 [D816V]. As to the kind of experiment: Inhibition of human partial length KIT D816V mutant (I571 to D952 residues) expressed in bacterial expression system at 1 uM by Kinomescan method relative to control.
The nature of data set [9]: Volume of distribution at steady state in Sprague-Dawley rat at 1 mg/kg, iv. To be noted: in vivo, read-out: Vdss. The data set is classed as ADME, organism-based.
Data set [10] concerns the target Insulin receptor (Homo sapiens) (UniProt P06213). As to the kind of experiment: Inhibition of wild-type human partial length INSR (P997 to E1318 residues) expressed in mammalian expression system at 10 uM by Kinomescan method relative to control.
Data set [11] addresses Mitogen-activated protein kinase 4 (Homo sapiens) (UniProt P31152). In words: Inhibition of wild-type human partial length ERK4 (M1 to L365 residues) expressed in bacterial expression system at 10 uM by Kinomescan method relative to control.
For data set [12], the target named is BMP-2-inducible protein kinase (Homo sapiens) (UniProt Q9NSY1). As to the kind of experiment: Inhibition of wild-type human partial length BIKE (S34 to N329 residues) expressed in bacterial expression system at 10 uM by Kinomescan method relative to control.
Data set [13] addresses Serine/threonine-protein kinase SBK1 (Homo sapiens) (UniProt Q52WX2). In words: Inhibition of wild-type human partial length SBK1 (P23 to P348 residues) expressed in mammalian expression system at 10 uM by Kinomescan method relative to control.
Data set [14] concerns the target Insulin receptor-related protein (Homo sapiens) (UniProt P14616). As to the kind of experiment: Inhibition of wild-type human partial length INSRR (R950 to E1278 residues) expressed in bacterial expression system at 10 uM by Kinomescan method relative to control.
In data set [15] the target is Aurora kinase A (Homo sapiens) (UniProt O14965). As to the kind of experiment: Inhibition of wild-type human partial length AURKA (E122 to K401 residues) expressed in mammalian expression system at 10 uM by Kinomescan method relative to control.
The target in data set [16] is Ankyrin repeat and protein kinase domain-containing protein 1 (Homo sapiens) (UniProt Q8NFD2). As to the kind of experiment: Inhibition of wild-type human partial length ANKK1 (M1 to A305 residues) expressed in mammalian expression system at 10 uM by Kinomescan method relative to control.
Data set [17] deals with Casein kinase I isoform alpha-like (Homo sapiens) (UniProt Q8N752). As to the kind of experiment: Inhibition of wild-type human full length CSNK1A1L (M1 to N337 residues) expressed in bacterial expression system at 10 uM by Kinomescan method relative to control.
The test system of data set [18] is Epidermal growth factor receptor (Homo sapiens), P00533 [UNDEFINED MUTATION]. In words: Inhibition of human partial length EGFR L747-S752del/P753S mutant expressed in bacterial expression system at 10 uM by Kinomescan method relative to control.
For data set [19], the target named is Serine/threonine-protein kinase 26 (Homo sapiens) (UniProt Q9P289). In words: Inhibition of wild-type human full length MST4 (M1 to P416 residues) expressed in mammalian expression system at 10 uM by Kinomescan method relative to control.
In data set [20] the target is Cyclin-dependent kinase-like 1 (Homo sapiens) (UniProt Q00532). In words: Inhibition of wild-type human full length CDKL1 (M1 to I358 residues) expressed in mammalian expression system at 10 uM by Kinomescan method relative to control.
Data set [21] concerns the target MAP/microtubule affinity-regulating kinase 3 (Homo sapiens) (UniProt P27448). As to the kind of experiment: Inhibition of wild-type human full length MARK3 (M1 to L729 residues) expressed in bacterial expression system at 10 uM by Kinomescan method relative to control.
Data set [22] addresses Calcium/calmodulin-dependent protein kinase type 1B (Homo sapiens) (UniProt Q6P2M8). In words: Inhibition of wild-type human partial length CAMK1B (W9 to A311 residues) expressed in mammalian expression system at 10 uM by Kinomescan method relative to control.
For data set [23], the target named is Wee1-like protein kinase 2 (Homo sapiens) (UniProt P0C1S8). As to the kind of experiment: Inhibition of wild-type human partial length WEE2 (M204 to K492 residues) expressed in bacterial expression system at 10 uM by Kinomescan method relative to control.
In data set [24] the target is Mitogen-activated protein kinase kinase kinase 1 (Homo sapiens) (UniProt Q13233). As to the kind of experiment: Inhibition of wild-type human partial length MAP3K1 (L1202 to W1512 residues) expressed in mammalian expression system at 10 uM by Kinomescan method relative to control.
In data set [25] the target is Cyclin-dependent kinase 19 (Homo sapiens) (UniProt Q9BWU1). In words: Inhibition of wild-type human partial length CDK11 (M1 to N360 residues) expressed in bacterial expression system at 10 uM by Kinomescan method relative to control.
In data set [26] the target is Tyrosine-protein kinase JAK2 (Homo sapiens) (UniProt O60674). In words: Inhibition of wild-type human partial length JAK2 JH1 catalytic domain (A829 to G1132 residues) expressed in mammalian expression system at 10 uM by Kinomescan method relative to control.
For data set [27], the system named is Phosphatidylinositol 4,5-bisphosphate 3-kinase catalytic subunit alpha isoform (Homo sapiens), P42336 [I800L]. In words: Inhibition of human partial length PIK3CA I800L mutant (R108 to N1068 residues) expressed in mammalian expression system at 10 uM by Kinomescan method relative to control.

This note sets out measurements from ChEMBL document CHEMBL4387741, “Optimization of novel reversible Bruton's tyrosine kinase inhibitors identified using Tethering-fragment-based screens” (Bioorg Med Chem, 2019).

As a reminder, the inhibition is the change of the read-out against control, counted positive when it falls.

`O=C(Nc1cccc([C@@H]2CN(c3ncnc4[nH]ccc34)CCN2CCO)c1)Nc1c(F)cccc1N1CCCC1`: the inhibition was 18% in data set [1]; 100% in data set [2]; 80% in data set [3]; 81% in [4]; 100% in data set [5]; 96% in [6]. For the same compound, the results for the inhibition in data set [7] and in data set [8] were 75% and 2%, respectively. In data set [9], the Vd was found to be 0.21 L/kg.

As to `O=C(Nc1cccc([C@H]2CCCN(c3ncnc4[nH]ccc34)C2)c1)Nc1ccccc1N1CCCC1`, the inhibition was determined as 81% in data set [10]; 100% in [11]; 0% in data set [12]; 42% in [13]; 100% in data set [14]; 0.8% in [15]. Moreover, the inhibition in [16] stood at 96%; in [17], 100%; in data set [18], 87%; in data set [19] it was 62%; in [20] it was 74%; in data set [21] it was 100%. The inhibition was 46% in data set [22]; 100% in [23]; 39% in [24]; 37% in [25]; 0% in data set [26]; 34% in data set [27].
